Entries after “also recorded” stand apart in the source; their conditions may differ.
How the values were obtained:
eosinophils = test: Free calcein staining of eosinophil granules after Triton X-100 treatment (fluorescence and Wright-Giemsa microscopy); assay type: cell-based, human; conditions: 5 minutes
Protocol: BOTTOM ROW: Wright-Giemsa stained (above) and fluorescent (below) images of eosinophils treated with 1 μM free calcein+0.005% Triton X-100 for 5 minutes (left), eosinophils treated with 0.01% Triton X-100+1 μM free calcein (5 minutes) (center) and eosinophils incubated in 0.05% Triton X-100+1 μM free calcein for 5 minutes.
Free calcein is a highly fluorescent modified fluorescein with 6 negative and 2 positive charges that is membrane impermeant. In its methyl ester form, calcein-AM, it is non-fluorescent and membrane permeable. When used as a fluorescent stain for cells, calcein-AM passes through the surface membrane and is cleaved to free calcein+the methyl ester residue by intracellular esterase activities. This modification traps the free calcein in the cytoplasm of the cell, and retention of the free calcein is a common criterion for intactness of the surface membrane.

PMN = test: Triton X-100 effect on PMN in the free calcein staining experiment; assay type: cell-based, human; conditions: 5 minutes
Protocol: Aliquots of an eosinophil-enriched leukocyte preparation (65% eosinophils) were exposed to 1 μM free calcein in HBSSw/o plus increasing amounts (0%-0.05%) Triton X-100 (5 minutes, 25° C.) and examined microscopically. […] Red eosinophil autofluorescence was readily visible and was also visible in all conditions up to and including the free calcein +0.01% Triton exposure. […] After Wright-Giemsa staining, these were recognized to be the residual nuclei of fully detergent-solubilized cells (pale green fluorescence) with associated eosinophilic granules corresponding exactly to the punctate areas of bright fluorescence (see FIG. 26).
Calcein-AM stained eosinophils trap free calcein in their cytoplasm after staining (left), and the intracellular free calcein is excluded from the eosinophil's large granules as shown on the left.

[1] = 0.001% Triton X-100 + 1 μM free calcein
[2] = 0.005% Triton X-100 + 1 μM free calcein

Row | Compound | calcein staining of eosinophils exposed to free calcein without Triton (eosinophils; 1 μM free calcein in HBSSw/o, 0% Triton, 25° C.) | free calcein staining / detergent effect on eosinophils (eosinophils; [1]) | free calcein staining / detergent effect on eosinophils (eosinophils; [2]) | free calcein staining / detergent effect on eosinophils (eosinophils; 0.01% Triton X-100 + 1 μM free calcein) | free calcein staining / detergent effect on eosinophils (eosinophils; 0.05% Triton X-100 + 1 μM free calcein) | free calcein staining / detergent effect on PMN (PMN; [1]) | free calcein staining / detergent effect on PMN (PMN; [2])
1 | O=C(O)CN(CC(=O)O)Cc1cc2c(cc1O)Oc1cc(O)c(CN(CC(=O)O)CC(=O)O)cc1C21OC(=O)c2ccccc21 [free calcein] | no calcein staining; also recorded: incapable of staining eosinophil cytoplasm | – | – | – | – | – | –
2 | Triton X-100 | – | free calcein continues to be excluded from eosinophils | the morphology of some eosinophils suggests partial detergent solubilization which is accompanied by bright free calcein staining of eosinophil granules | occasional eosinophils showed an isolated bright green granule within the eosinophil autofluorescence pattern; also recorded: all eosinophils show nuclear changes suggestive of detergent effect, and many contain 1-2 bright granules on a background of red autofluorescence | many discrete areas of pale green fluorescence with overlying, bright green punctate areas of fluorescence; also recorded: only eosinophil nuclear remnants are seen | stains the fine granules of a PMN showing obvious detergent effects | detergent solubilized PMN show very fine, fluorescent "calcein sand" staining patterns

Source: US6326177A, “Method and apparatus for intracellular electro-manipulation” (Eastern Virginia Medical School of the Medical College of …, priority 2000, dated 2001)
